Experimental data published in ChEMBL document CHEMBL1145844 (J Med Chem, 2003).

Columns and labels:
[1] = biological target: T1, Kappa-type opioid receptor (Homo sapiens, UniProt P41145); experiment: % stimulation of [35S]GTP-gamma-S, binding of compound in recombinant human Opioid receptor kappa 1 transfected into CHO cells; type: functional, cell-based
Mu-type opioid receptor [2] = biological target: T2, Mu-type opioid receptor (Homo sapiens, UniProt P35372); experiment: Effective concentration agonistic activity towards Opioid receptor mu 1; type: functional
T2 sequence (P35372 whole entry): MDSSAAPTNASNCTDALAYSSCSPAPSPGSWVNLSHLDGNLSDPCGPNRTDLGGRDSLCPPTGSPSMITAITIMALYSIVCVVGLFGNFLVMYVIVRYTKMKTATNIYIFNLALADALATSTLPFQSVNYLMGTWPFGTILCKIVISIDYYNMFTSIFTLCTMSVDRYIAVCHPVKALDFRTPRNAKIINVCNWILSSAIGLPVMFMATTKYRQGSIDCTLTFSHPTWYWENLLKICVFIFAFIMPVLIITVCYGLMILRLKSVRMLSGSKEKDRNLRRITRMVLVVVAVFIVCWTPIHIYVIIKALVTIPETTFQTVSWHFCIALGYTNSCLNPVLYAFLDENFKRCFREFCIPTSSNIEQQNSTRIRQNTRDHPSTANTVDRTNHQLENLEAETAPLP

[3] = biological target: T3, Delta-type opioid receptor (Homo sapiens, UniProt P41143); experiment: Binding affinity for human Opioid receptor delta 1 transfected into chinese hamster ovary cells by displacing [3H]CI-DPDPE radioligand; type: cell-based
T3 sequence (P41143 whole entry): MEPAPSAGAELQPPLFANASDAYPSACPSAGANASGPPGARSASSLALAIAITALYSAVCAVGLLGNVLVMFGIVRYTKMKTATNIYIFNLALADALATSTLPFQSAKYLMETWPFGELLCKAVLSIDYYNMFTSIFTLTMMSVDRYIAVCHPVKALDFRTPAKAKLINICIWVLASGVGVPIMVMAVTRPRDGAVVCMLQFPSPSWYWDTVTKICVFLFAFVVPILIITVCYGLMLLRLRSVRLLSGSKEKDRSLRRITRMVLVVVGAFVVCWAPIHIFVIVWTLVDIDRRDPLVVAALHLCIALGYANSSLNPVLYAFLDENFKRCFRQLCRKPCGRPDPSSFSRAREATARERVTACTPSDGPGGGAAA

Mu-type opioid receptor [4] = biological target: T2, Mu-type opioid receptor; experiment: Binding affinity for human Opioid receptor mu 1 transfected into chinese hamster ovary cells by displacing [3H]DAMGO radioligand; type: cell-based
[5] = biological target: T3, Delta-type opioid receptor; experiment: Agonistic activity towards Opioid receptor delta 1; type: functional
[6] = biological target: T3, Delta-type opioid receptor; experiment: % stimulation of [35S]GTP-gamma-S, binding in recombinant human Opioid receptor delta 1 transfected into CHO cells; type: functional, cell-based
[7] = biological target: T1, Kappa-type opioid receptor; experiment: Agonistic activity towards Opioid receptor kappa 1; type: functional
[8] = biological target: T1, Kappa-type opioid receptor; experiment: Binding affinity in recombinant human Opioid receptor kappa 1 transfected into chinese hamster ovary cells by displacing [3H]U-69593 radioligand; type: cell-based
Mu-type opioid receptor [9] = biological target: T2, Mu-type opioid receptor; experiment: % stimulation of [35S]GTP-gamma-S, binding in recombinant human Opioid receptor mu 1 transfected into CHO cells; type: functional, cell-based
[10] = biological target: Opioid receptors; delta & kappa (Homo sapiens, UniProt P41145+P41143); experiment: Ratio of kappa/delta-opioid receptors Binding affinity; type: protein assay
[11] = biological target: Opioid receptors; mu & delta (Homo sapiens, UniProt P41143+P35372); experiment: Ratio of mu/delta-opioid receptors Binding affinity; type: protein assay
[12] = biological target: T1, Kappa-type opioid receptor; experiment: Agonistic activity towards opioid receptor kappa 1; type: functional

T1 sequence (P41145 whole entry): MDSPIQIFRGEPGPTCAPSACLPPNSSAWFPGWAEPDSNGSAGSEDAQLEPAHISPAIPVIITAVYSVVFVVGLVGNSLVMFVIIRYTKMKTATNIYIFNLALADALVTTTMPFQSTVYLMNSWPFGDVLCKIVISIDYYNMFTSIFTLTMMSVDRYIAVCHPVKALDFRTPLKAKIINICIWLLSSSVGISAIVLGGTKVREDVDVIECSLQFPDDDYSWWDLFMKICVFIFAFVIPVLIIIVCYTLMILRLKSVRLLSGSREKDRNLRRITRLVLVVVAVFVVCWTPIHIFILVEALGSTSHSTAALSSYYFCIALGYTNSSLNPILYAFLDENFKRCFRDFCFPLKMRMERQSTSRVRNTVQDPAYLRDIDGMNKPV

Row | SMILES | Stimulation [1] | EC50 (Mu-type opioid receptor [2]) | Ki [3] | Ki (Mu-type opioid receptor [4]) | EC50 [5] | Stimulation [6] | EC50 [7] | Ki [8] | Stimulation (Mu-type opioid receptor [9]) | Ki [10] | Ki [11] | EC50 [12]
1 | COc1ccc2c(c1O)[C@]13CCN(C)C(C2)[C@]12CCC(=O)[C@H]3/C(=C(\C)c1ccccc1)C2 | 116% | 15.2 nM | 5.66 nM | 4.54 nM | 72.3 nM | 108% | 3.38 nM | 0.14 nM | 108% | 0.02 | 0.8 | –
2 | CN1CC[C@]23c4c5ccc(O)c4O[C@@]2(C)c2[nH]c4ccccc4c2C[C@@]3(C/C=C/c2ccccc2)C1C5 | 60% | 804 nM | 12.5 nM | 43.8 nM | 21.8 nM | 79% | 2050 nM | 94.2 nM | 85% | 7.5 | 3.5 | –
3 | COc1ccc2c(c1O)[C@]13CCN(C)C(C2)[C@]12CCC(=O)[C@H]3/C(=C/c1ccccc1)C2 | 85% | 6.7 nM | 5.5 nM | 0.43 nM | 4.19 nM | 80% | 17.5 nM | 0.2 nM | 123% | 0.04 | 0.08 | –
4 | C/C=C1\C[C@@]23Cc4c([nH]c5ccccc45)[C@@H]1[C@@]21CCN(C)C3Cc2ccc(OC)c(O)c21 | 36% | 1640 nM | 82.5 nM | 122 nM | 221 nM | – | – | 239 nM | 41% | 2.9 | 1.5 | 2210 nM
5 | COc1ccc2c(c1O)[C@]13CCN(C)C(C2)[C@@]12C/C(=C\c1ccccc1)[C@@H]3c1[nH]c3ccccc3c1C2 | 83% | 44.7 nM | 15.9 nM | 6.3 nM | 42.6 nM | 87% | 323 nM | 34.6 nM | 110% | 2.2 | 0.4 | –
6 | COc1ccc2c(c1O)[C@]13CCN(C)C(C2)[C@@]12CC(=C(C)C)[C@@H]3c1[nH]c3ccccc3c1C2 | 44% | 1020 nM | 103 nM | 330 nM | 211 nM | – | 866 nM | 28.4 nM | 52% | 0.3 | 3.2 | –
7 | COc1ccc2c(c1O)[C@]13CCN(C)C(C2)[C@@]12C/C(=C(/C)c1ccccc1)[C@@H]3c1[nH]c3ccccc3c1C2 | 97% | 139 nM | 23.2 nM | 13.4 nM | 368 nM | 168% | 82.4 nM | 0.61 nM | 144% | 0.03 | 0.6 | –
8 | CC(C)=CC[C@@]12Cc3c([nH]c4ccccc34)[C@]3(C)Oc4c(O)ccc5c4[C@]13CCN(C)C2C5 | 31% | 1200 nM | 51.4 nM | 254 nM | 90.1 nM | 43% | 945 nM | 440 nM | 72% | 8.6 | 4.9 | –
